We go through 1 compound from patent US20210221822A1, “TRICYCLIC DERIVATIVES INHIBITOR, PREPARATION METHOD, AND APPLICATIONS THEREOF” (Jiangsu Hansoh Pharmaceutical Group Co., Ltd., priority 2018, published 2021).

As a reminder, the IC50 is the midpoint of a concentration-inhibition curve.

The target in one test is T1, PI3Kα (Homo sapiens, UniProt P42336).
T1 construct: purchased Promega V1721
The test can be described thus: ADP-Glo lipid kinase assay, PI3Kα kinase activity. Type of test: biochemical. Put shortly:
(§1)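 ADP-Glo luminescence measured ADP formed by PI3Kα, β, γ or δ (0.1-2 nM working solution) with PIP2:3PS (50 μM added solution) and ATP in HEPES/MgCl2/NaCl/BSA buffer, 90 to 120 min at room temperature. % inhibition was set against DMSO and no-kinase controls, and IC50 came from a four-parameter fit.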
On the technique in general: ADP-Glo first removes unused ATP, then detects ADP through luciferase.

The next test deals with T2, PI3Kγ (Homo sapiens, UniProt P48736).
T2 construct: purchased Thermofisher PV4786
T2 sequence (P48736 whole entry): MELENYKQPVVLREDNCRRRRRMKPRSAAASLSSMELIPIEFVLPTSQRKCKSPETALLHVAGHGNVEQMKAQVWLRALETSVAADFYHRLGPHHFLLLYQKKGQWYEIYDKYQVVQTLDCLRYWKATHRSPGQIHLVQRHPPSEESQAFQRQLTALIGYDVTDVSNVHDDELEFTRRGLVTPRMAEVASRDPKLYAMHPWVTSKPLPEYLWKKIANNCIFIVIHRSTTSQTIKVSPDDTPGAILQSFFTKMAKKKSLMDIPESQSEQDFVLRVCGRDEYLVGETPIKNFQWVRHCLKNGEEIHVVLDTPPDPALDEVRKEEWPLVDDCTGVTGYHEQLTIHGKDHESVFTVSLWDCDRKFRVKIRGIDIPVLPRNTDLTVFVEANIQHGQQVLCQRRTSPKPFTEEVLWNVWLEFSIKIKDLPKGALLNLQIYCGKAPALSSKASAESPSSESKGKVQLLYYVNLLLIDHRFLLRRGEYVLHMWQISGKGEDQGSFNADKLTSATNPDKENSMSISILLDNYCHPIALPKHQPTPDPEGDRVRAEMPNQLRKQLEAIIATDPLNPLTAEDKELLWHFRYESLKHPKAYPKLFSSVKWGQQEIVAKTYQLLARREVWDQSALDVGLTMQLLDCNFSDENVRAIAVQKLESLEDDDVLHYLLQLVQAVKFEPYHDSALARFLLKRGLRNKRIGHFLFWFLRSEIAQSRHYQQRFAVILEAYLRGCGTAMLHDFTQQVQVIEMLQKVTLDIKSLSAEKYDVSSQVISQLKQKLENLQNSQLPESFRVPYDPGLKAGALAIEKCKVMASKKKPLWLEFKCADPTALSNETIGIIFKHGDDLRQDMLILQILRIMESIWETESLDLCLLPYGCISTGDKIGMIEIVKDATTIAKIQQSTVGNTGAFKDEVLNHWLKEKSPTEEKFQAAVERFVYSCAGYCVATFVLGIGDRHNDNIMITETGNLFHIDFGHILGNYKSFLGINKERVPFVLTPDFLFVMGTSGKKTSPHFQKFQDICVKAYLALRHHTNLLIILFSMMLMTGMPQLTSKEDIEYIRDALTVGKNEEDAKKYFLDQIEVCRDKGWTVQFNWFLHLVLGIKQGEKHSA
The test can be described thus: ADP-Glo lipid kinase assay, PI3Kγ kinase activity. Type of test: biochemical. As to conditions: 0.4 nM enzyme, 120 min, 50 μM ATP. Put shortly: as §1

For the next test, the target named is T3, PI3Kδ (Homo sapiens, UniProt O00329).
T3 construct: purchased Carna 11-103
T3 sequence (O00329 whole entry): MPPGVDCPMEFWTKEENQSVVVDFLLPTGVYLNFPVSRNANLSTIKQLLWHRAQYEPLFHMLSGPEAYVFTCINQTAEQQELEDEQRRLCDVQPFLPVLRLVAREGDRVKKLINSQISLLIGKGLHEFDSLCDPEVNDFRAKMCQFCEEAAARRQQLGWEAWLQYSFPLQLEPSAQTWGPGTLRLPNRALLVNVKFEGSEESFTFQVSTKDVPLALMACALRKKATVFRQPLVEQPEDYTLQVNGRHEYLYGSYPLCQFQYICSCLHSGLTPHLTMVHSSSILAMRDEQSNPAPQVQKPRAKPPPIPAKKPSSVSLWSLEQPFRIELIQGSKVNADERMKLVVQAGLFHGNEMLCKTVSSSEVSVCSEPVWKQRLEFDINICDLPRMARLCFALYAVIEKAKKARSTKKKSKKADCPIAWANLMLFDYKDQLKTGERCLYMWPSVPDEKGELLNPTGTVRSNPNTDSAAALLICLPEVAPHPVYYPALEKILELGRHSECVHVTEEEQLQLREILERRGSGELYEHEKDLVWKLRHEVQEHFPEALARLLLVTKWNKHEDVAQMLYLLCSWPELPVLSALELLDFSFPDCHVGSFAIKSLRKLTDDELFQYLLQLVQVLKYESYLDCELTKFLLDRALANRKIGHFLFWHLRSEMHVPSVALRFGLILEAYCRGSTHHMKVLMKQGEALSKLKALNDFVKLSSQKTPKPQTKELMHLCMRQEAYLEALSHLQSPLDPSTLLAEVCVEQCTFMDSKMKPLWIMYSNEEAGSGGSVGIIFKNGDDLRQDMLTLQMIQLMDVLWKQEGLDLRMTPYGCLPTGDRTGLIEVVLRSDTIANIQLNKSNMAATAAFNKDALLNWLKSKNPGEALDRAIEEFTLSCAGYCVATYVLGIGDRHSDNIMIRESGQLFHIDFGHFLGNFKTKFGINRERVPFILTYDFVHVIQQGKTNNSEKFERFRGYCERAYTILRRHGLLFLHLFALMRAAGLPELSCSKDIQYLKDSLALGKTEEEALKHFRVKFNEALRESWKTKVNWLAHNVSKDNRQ
T3 sequence (P27986 whole entry partner): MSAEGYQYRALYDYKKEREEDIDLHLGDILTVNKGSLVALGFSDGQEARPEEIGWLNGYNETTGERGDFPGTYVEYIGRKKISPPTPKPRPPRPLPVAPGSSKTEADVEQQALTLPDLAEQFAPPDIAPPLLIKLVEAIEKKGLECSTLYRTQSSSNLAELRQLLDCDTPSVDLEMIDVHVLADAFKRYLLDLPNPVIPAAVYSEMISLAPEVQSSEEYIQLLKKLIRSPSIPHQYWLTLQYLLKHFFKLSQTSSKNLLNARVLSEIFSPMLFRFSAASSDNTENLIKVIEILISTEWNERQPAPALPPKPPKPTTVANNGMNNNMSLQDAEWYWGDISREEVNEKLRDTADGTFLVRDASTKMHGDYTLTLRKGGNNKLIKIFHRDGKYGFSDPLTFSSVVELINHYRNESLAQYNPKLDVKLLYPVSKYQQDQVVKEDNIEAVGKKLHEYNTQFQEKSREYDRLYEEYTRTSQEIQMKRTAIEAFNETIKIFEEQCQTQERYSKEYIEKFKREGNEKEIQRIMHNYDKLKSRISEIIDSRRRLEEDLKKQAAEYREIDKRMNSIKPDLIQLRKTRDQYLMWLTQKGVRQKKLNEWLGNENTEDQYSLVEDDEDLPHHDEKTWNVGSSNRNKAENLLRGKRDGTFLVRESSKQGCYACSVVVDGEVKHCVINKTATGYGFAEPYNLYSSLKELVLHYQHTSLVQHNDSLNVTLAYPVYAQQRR
The test can be described thus: ADP-Glo lipid kinase assay, PI3Kδ kinase activity. It is filed as biochemical. As to conditions: 0.1 nM enzyme, 90 min, 100 μM ATP. The gist of the method: as §1

Test [1] deals with PI3Kα mutant cancer cells HCC1954 (H1047R). The test can be described thus: Cell Titer-Glo proliferation inhibition, HCC1954. Type of test: cell-based. As to conditions: Homo sapiens, 48 to 96 hours. As for the experimental part: (§2) Experimental method: The proliferation inhibitory effect of the compounds of the examples on PI3Kα mutant cancer cell lines HCC1954, HGC-27 and MKN1 was determined by Cell Titer-Glo method. The cell lines were cultured in RPMI 1640 medium (Gibco #22400089) containing 10% FBS (Gibco #10091148) and 1% P/S (Hyclone #SV30010) at 37° C. and 5% CO2. Before the experiment, the cells were collected and counted, and then the cell density was adjusted. The cells were inoculated in a white 96-well plate (Corning #3610) at a density of 1000 to 10000 cells/well, and incubated in an incubator at 37° C., 5% CO2 overnight. The compound solution of different concentrations was added, and corresponding vehicle control was set at the same time. The cell plate was further incubated in an incubator at 37° C., 5% CO2 for 48 to 96 hours. The cell plate and its content were equilibrated to room temperature. 20 to 100 μL of Cell Titer-Glo solution (Promega #G7573) was added to each well, and the plate was shaked well and incubated at room temperature in the dark for 5 to 30 minutes. The chemiluminescence value was measured by the BioTek SynergyH1 microplate reader.
(§3) The percentage inhibition data of the well treated by the compounds of the examples was calculated through the vehicle control well on the plate {% inhibition rate=100−(test compound value/vehicle control value)×100}. The IC50 value was calculated by fitting the data of different concentrations and corresponding percentage inhibition rates to a four-parameter nonlinear logic formula with GraphPad prism.
Background: ATP-based viability assays read luminescence as a measure of living cells.

For test [2], the system named is PI3Kα mutant cancer cells MKN1 (E545K). The test can be described thus: Cell Titer-Glo proliferation inhibition, MKN1. It is filed as cell-based. Conditions: Homo sapiens, MKN-1, 48 to 96 hours. The protocol: as §2, §3
In test [3] the test system is PI3Kα mutant cancer cells HGC-27 (E542K). The test can be described thus: Cell Titer-Glo proliferation inhibition, HGC-27. It is filed as cell-based. As to conditions: Homo sapiens, 48 to 96 hours. The protocol: as §2, §3
The test system of the next test is HCC1954 cells. The test can be described thus: In vivo efficacy test, HCC1954 tumor-bearing nude mice. On the set-up: species or system BALB/c nude mice. Conditions: HCC1954 xenograft, oral 10 mg/kg once/day, 21 days (Example 51: 19 days). As for the experimental part:
a. HCC1954 cells were taken from the cell bank, and resuscitated in RPMI-1640 medium (RPMI-1640+10% FBS+1% SP). The resuscitated cells were placed in a cell culture flask (the cell type, date, operator's name and the like were marked on the wall of the flask), and cultured in a CO2 incubator (the temperature of the incubator was 37° C., and the CO2 concentration was 5%).
c. The cultured cells were collected and counted with the automatic cell counter. The cells were resuspended with PBS and matrigel according to the counting results to prepare a cell suspension (density: 5×10^7/mL), which was placed in an ice box for later use.
d. The test nude mice were subjected to inoculation successively (0.1 mL of cell suspension was inoculated to each mouse).
a. According to the tumor growth, the tumor was measured on 14 to 18 days after the inoculation, and the tumor size was calculated.
Tumor volume calculation: tumor volume (mm^3)=length (mm)×width (mm)×width (mm)/2
c. According to the grouping results, the test compounds were administered (administration mode: oral administration; administration dose: 10 mg/kg;
administration volume: 10 mL/kg; administration frequency: once/day; administration cycle: 21 days; vehicle: 0.5% CMC/1% Tween 80).
d. Tumor volume and body weight were measured twice a week after the administration of test compounds began.
f. […]

T1 sequence (P42336 whole entry): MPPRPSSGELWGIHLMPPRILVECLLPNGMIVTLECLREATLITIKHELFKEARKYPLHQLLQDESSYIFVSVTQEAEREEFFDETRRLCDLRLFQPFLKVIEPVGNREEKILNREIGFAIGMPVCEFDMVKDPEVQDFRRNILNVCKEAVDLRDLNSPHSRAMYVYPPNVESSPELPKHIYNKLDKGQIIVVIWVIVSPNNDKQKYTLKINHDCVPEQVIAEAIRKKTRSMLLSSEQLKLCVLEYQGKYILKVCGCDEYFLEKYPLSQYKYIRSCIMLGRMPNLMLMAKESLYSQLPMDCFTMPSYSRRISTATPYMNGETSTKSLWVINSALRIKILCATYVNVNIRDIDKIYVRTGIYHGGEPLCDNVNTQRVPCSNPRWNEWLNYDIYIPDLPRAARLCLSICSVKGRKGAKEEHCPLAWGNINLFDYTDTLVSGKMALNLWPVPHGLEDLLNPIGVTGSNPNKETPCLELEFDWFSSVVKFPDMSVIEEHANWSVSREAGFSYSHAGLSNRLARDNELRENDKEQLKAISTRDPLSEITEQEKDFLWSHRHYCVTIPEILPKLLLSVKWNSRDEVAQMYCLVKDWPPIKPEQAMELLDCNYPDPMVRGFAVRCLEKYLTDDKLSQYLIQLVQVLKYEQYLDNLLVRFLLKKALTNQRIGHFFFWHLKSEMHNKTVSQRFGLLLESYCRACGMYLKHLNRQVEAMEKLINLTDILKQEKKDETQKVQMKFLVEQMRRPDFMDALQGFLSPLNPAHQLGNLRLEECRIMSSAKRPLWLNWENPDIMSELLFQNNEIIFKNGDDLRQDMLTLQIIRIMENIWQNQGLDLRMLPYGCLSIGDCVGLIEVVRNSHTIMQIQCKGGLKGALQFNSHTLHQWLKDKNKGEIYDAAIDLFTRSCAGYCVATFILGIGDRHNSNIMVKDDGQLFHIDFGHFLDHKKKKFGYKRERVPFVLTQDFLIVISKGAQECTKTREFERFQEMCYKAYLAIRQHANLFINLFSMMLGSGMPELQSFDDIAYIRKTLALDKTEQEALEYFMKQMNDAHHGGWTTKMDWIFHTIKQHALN
T1 sequence (P27986 whole entry partner): as the sequence (P27986 whole entry partner) above

On to `C[C@H](Nc1ccc2c(c1)OCCn1cc(N3C(=O)COC[C@H]3C(F)F)nc1-2)C(N)=O` [Example 68, (S)-2-((2-((S)-3-(difluoromethyl)-5-oxomorpholino)-5,6-dihydrobenzo[f]imidazo[1,2-d][1,4]oxazepin-9-yl)amino)propanamide], for which the half-inhibitory concentration (IC50) is 0.38 nM on PI3Kα (ADP-Glo, 0.1 nM enzyme, 120 min, 50 μM ATP); 79 nM at PI3Kγ; 24 nM at PI3Kδ; 70 nM in test [1]; 113 nM in test [2]; 111 nM in test [3]. Moreover, on PI3Kα (ratio of IC50 PI3Kβ to IC50 PI3Kα), the “Selectivity of PI3Kα vs PI3Kβ” value is listed as 521. The “Selectivity of PI3Kα vs PI3Kγ” value on PI3Kα (ratio of IC50 PI3Kγ to IC50 PI3Kα) was 208. Also, the “Selectivity of PI3Kα vs PI3Kδ” value at PI3Kα (ratio of IC50 PI3Kδ to IC50 PI3Kα) came out at 63. The “Tumor growth inhibition rate” value in the test with HCC1954 cells is listed as 78%.
